Assay results: patent US20100291089A1, “LIGAND OF REGULATING IMMUNE RESPONSE, AND USE THEREOF IN TREATING AN IMMUNE RESPONSE-RELATED DISEASE” (POSTECH ACADEMY-INDUSTRY FOUNDATION, priority 2005, published 2010)
Where no end group is shown, it is not given here.

Tests used:
RA FLS = experiment: Cell proliferation assay ([3H]-thymidine incorporation, cell counts) in RA FLS; assay type: cell-based, human; settings: SAA 5 μM, 72 h, PTX 100 ng/ml, U73122 1 μM, PD98059 50 μM, LY294002 50 μM
Protocol: Fibroblast-like synoviocytes (FLS) were prepared from synovial samples obtained from patients suffering from RA and osteoarthritis (OA), all of whom were also undergoing total joint replacement surgery. The FLS were isolated from the synovial tissues in accordance with a previously described procedure (Cho, C. S., M. L. Cho, S. Y. Min, W. U. Kim, D. J. Min, S. S. Lee, S. H. Park, J. Choe, and H. Y. Kim. 2000. CD40 engagement on synovial fibroblast up-regulates production of vascular endothelial growth factor. J. Immunol. 164: 5055-5061).
In brief, fresh synovial tissues were minced into 2- to 3-mm pieces, then treated for 4 h with 4 mg/ml type I collagenase (Worthington Biochemical), and maintained in Dulbecco's Modified Eagle's Medium (DMEM) containing 10% FBS at 37° C. in an atmosphere containing 5% CO2. […] MH7A cells, the immortalized synoviocytes that harbor the SV40 T antigen, were grown in DMEM supplemented with 10% FBS, as previously described (Miyazawa, K, A. Mori, and H. Okudaira. 1998. Establishment and characterization of a novel human rheumatoid fibroblast-like synoviocyte line, MH7A, immortalized with SV40T antigen. J. Biochem. 124: 1153-1162), and then employed in some of the experiments. Human umbilical vein endothelial cells (HUVECs) were isolated from fresh human umbilical cords via collagenase (Worthington Biochemical) digestion, and then maintained in 20% FBS-containing M-199 medium (Sigma, St. Louis, Mo.), as previously described. All HUVECs were used after no more than five passages.
The RA FLS, OA FLS, and HUVECs were plated onto 24-well culture dishes at a density of 2×10^4 cells/well, and then permitted to attach overnight. After 24 h of serum starvation, the cells were treated for 72 h with a variety of mitogens. [^3H]-thymidine (1 μCi) was added to each of the wells prior to the final 6 h of incubation. Cell growth was also evaluated via cell counts. Control and mitogen-treated cells were harvested by trypsinization, and the number of cells was determined with a hemocytometer, under ×100 magnification.

human neutrophils [1] = experiment: Intracellular calcium mobilization (fura-2) in human neutrophils; assay type: cell-based; settings: 1 M peptide
Protocol: Neutrophils were stimulated with 1 μM of PACAP27 (SEQ ID NO:1), PACAP38 (SEQ ID NO:2), or VIP (SEQ ID NO:3), and calcium concentrations were measured for 10 min. In order to measure EKR phosphorylation, each peptide hormones was used with 1 μM concentrations for 5 min. For cAMP measurement, each peptide hormones was used with 1 μM concentrations for 10 min.
(§1) Intracellular calcium concentrations ([Ca^2+]i) were determined using Grynkiewicz's method with fura-2/AM, as described in “Grynkiewicz, G., M. Poenie, and R. Y. Tsien. 1985. […] J. Biol. Chem. 260:3440-3450”. Briefly, the cells prepared in Example 1.2 were incubated with 3 µM fura-2/AM at 37° C. for 50 minutes in fresh serum free RPMI 1640 medium with continuous stirring. The incubated cells (2×10^6) were aliquoted for each assay in Ca^2+-free Locke's solution (154 mM NaCl, 5.6 mM KCl, 1.2 mM MgCl2, 5 mM HEPES (pH 7.3), 10 mM glucose, and 0.2 mM EGTA). Fluorescence changes at 340 and 380 nm using a common emission wavelength of 500 nm were measured, and fluorescence ratios were converted to [Ca2+]i, as described in above Grynkiewicz, G. et al.

[2] = target: T1, formyl peptide receptor-like 1 (FPRL1) (human, UniProt P25090 1-351); experiment: cell-based or functional assay
T1 construct: in the other assays endogenous on human neutrophils, monocytes, synoviocytes (FLS, MH7A) or HUVECs; also called FPRL1/RBL; lipoxin A4 receptor (LXA4R)
T1 sequence: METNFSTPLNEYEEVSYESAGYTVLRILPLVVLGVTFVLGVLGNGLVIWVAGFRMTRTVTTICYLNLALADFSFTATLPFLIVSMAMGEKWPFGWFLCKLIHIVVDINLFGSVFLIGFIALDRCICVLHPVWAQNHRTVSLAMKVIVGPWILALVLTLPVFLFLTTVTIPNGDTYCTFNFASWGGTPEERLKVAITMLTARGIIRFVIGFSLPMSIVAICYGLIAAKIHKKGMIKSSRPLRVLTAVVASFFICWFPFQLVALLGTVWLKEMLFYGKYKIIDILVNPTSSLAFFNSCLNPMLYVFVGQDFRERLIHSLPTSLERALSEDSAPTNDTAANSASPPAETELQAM

HUVECs = experiment: HUVEC wounding migration assay; assay type: cell-based, human; settings: SAA 5 μM, WKYMVm 10 nM, VEGF 20 ng/ml; 12 h
Protocol: […] After 12 h of incubation, migration was quantitated via counts of the cells migrating beyond the reference line. For the tube formation assay, the HUVECs were seeded on a layer of previously polymerized Matrigel (BD Biosciences) with SAA (SEQ ID NO:19) (5 μg/ml), WKYMVm (SEQ ID NO:5) peptide (10 nM), a specific ligand for FPRL1 (32, 33) or VEGF (20 ng/ml). After 18 h of incubation, the cell morphology was visualized via phase-contrast microscopy and photographed.

FPRL1 [3] = target: T2, FPRL1 (Homo sapiens, UniProt P25090); experiment: Intracellular calcium mobilization (fura-2) in FPRL1/RBL cells; assay type: cell-based
T2 construct: expressed in transfected cells
T2 sequence (P25090 1-351): T1 sequence
Protocol: FPRL1-expressing rat basophile leukemia (RBL)-2H3 (FPRL1/RBL), FPR-expressing RBL-2H3 (FPR/RBL), and vector-transfected RBL-2H3 (vector/RBL) were donated by Dr. Richard D. Ye (University of Illinois). FPRL1/RBL, FPR/RBL, and vector/RBL were maintained at 37° C. in a humidified 5% CO2 atmosphere in high glucose DMEM supplemented with 20% (vol/vol) heat-inactivated fetal calf serum and G418 ([…]). FPRL1/RBL, FPR/RBL, and vector/RBL were sub-cultured every three days. The prepared cells were used in the following examples.
as §1

human neutrophils [4] = experiment: FACS analysis of surface CD11b expression on neutrophils; assay type: cell-based; settings: 1 μM or 10 μM, 1 hour
Protocol: Purified neutrophils were incubated with indicated concentration of PACAP27 (SEQ ID NO:1) for 1 hour. Cells (2×10^5/assay) were washed with FACS buffer (PBS containing 1% BSA and 0.1% sodium azide), incubated with human AB type serum for 10 minutes on ice, and stained with PE-labeled human CD11b antibody (BD PharMingen, San Diego, Calif.). They were then analyzed using a FACSCalibur system (BD Biosciences, San Jose, Calif.), as described in “Harfi, I., S. D'Hondt, F. Corazza, and E. Sariban. 2004. J. Immunol. 173:4154-4163”.

FPRL1 [5] = target: T2, FPRL1; experiment: Ligand binding analysis, 125I-labeled PACAP27 on FPRL1/RBL cells; settings: compared with PACAP27
Protocol: The ligand binding analysis was performed as described in “Bae, Y. S., H. Y. Lee, E. J. Jo, J. I. Kim, H. K. Kang, R. D. Ye, J. Y. Kwak, and S. H. Ryu. 2004. J. Immunol. 173:607-614”. Briefly, FPRL1/RBL cells were seeded at 1×10^5 cells/well onto a 24 well plate and cultured overnight. After blocking them with blocking buffer (33 mM HEPES, pH 7.5, 0.1% BSA in RPMI 1640 medium) for 2 hours, 50 pM of ^125I-labeled PACAP27 (Perkin-Elmer, Boston, Mass.) was added to the cells in binding buffer (PBS containing 0.1% BSA), in the presence of the test peptides (cold PACAP27 (SEQ ID NO:1), truncated-PACAPs, and chimeric PACAPs), and then incubated for 3 hours at 4° C. with continuous shaking. The cells were then washed 5 times with ice-cold binding buffer, and 200 µL of lysis buffer (20 mM Tris, pH 7.5, 1% Triton X-100) was added to each well for 20 minutes at room temperature. Lysates were then collected and counted using a γ-ray counter.

[6] = target: T1, formyl peptide receptor-like 1 (FPRL1); experiment: displacement of 125I-PACAP27 by unlabeled peptide on FPRL1/RBL cells

COc1cccc(-c2cc(=O)c3ccccc3o2)c1N [PD98059]
blockage of the proliferative and anti-apoptotic activities of SAA (RA FLS): almost complete blockage

COc1ccc2c(c1)CC[C@@H]1[C@@H]2CC[C@]2(C)[C@@H](NCCCCCCN3C(=O)C=CC3=O)CC[C@@H]12 [U73122]
blockage of the proliferative and anti-apoptotic activities of SAA (RA FLS): almost complete blockage

PACAP38: pituitary adenylate cyclase-activating polypeptide, 38 amino acids, SEQ ID NO:2 (HSDGIFTDSYSRYRKQMAVKKYLAAVLGKRYKQRVKNK; ends and bridges not checked; listed as Homo sapiens)
[Ca2+]i increase in human neutrophils (human neutrophils [1]): neither PACAP38 (SEQ ID NO:2) nor VIP (SEQ ID NO:3) increased [Ca2+]i

Serum amyloid A (SAA) (from UniProt P0DJI8 19-94) (ligand)
intracellular Ca2+ in RA FLS (Fluo-3, calcium imaging), SAA 3 µM [2]: 2.3 fold

VEGF
migratory activity of HUVECs relative to control cells (HUVECs): approximately 3 times

VIP: vasoactive intestinal peptide, SEQ ID NO:3
[Ca2+]i increase in human neutrophils (human neutrophils [1]): neither PACAP38 (SEQ ID NO:2) nor VIP (SEQ ID NO:3) increased [Ca2+]i
[Ca2+]i increase / activation of FPRL1 (FPRL1 [3]): does not interact with FPRL1

boiled PACAP27: PACAP27 heat-inactivated for 10 minutes in boiling water (HSDGIFTDSYSRYRKQMAVKKYLAAVL; not fully specified; ends and bridges not checked; listed as Homo sapiens)
CD11b up-regulation compared with PACAP27 (human neutrophils [4]): no difference

polymyxin b-treated PACAP27: PACAP27 pretreated with 5 μM polymyxin b for 1 hour in 37° C. (HSDGIFTDSYSRYRKQMAVKKYLAAVL; not fully specified; ends and bridges not checked; listed as Homo sapiens)
CD11b up-regulation compared with PACAP27 (human neutrophils [4]): no difference

tPACAP9-27: truncated PACAP27, SEQ ID NO:7 (SYSRYRKQMAVKKYLAAVL; ends and bridges not checked; listed as Homo sapiens)
binding affinity to FPRL1 (in words) (FPRL1 [5]): almost the same binding affinity as PACAP27
[Ca2+]i increase / activation of FPRL1 (FPRL1 [3]): partially activate

B1: tPACAP9-27 (truncated PACAP) (peptide)
peptide: SYSRYRKQMAVKKYLAAVL
modifications: ends and bridges not checked
notes: Synthetic truncation of PACAP27; the range is counted on PACAP27, by the peptide's name
binding result [6]: binds

B2: cPACAP9VIP (chimeric PACAP) (peptide)
peptide: HSDGIFTDNYSRYRKQMAVKKYLAAVL
modifications: ends and bridges not checked
notes: PACAP27 with the VIP residue at position 9; bought from GenScript
Kd [6]: 51.2 nM

B3: cPACAP13VIP (chimeric PACAP) (peptide)
peptide: HSDGIFTDSYSRLRKQMAVKKYLAAVL
modifications: ends and bridges not checked
notes: PACAP27 with the VIP residue at position 13; bought from GenScript
Kd [6]: 51.2 nM
